Among the test systems are A549 NSCLC; SK-OV-3 ovarian; COLO 205 colon; SF-268 CNS; OVCAR-8 ovarian; K-562 leukemia; OVCAR-4 ovarian; SK-MEL-5 melanoma; CAKI-1 renal; SF-295 CNS; HL-60(TB) leukemia; UACC-257 melanoma; EKVX NSCLC; PC-3 prostate; HCC-2998 colon; A498 renal; SNB-75 CNS; NCI/ADR-RES ovarian; SF-539 CNS; NCI-H460 lung.
Holding throughout (assay): DTP human tumour cell line panel, 48 h

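In this assay, cells in 96-well plates receive the compound at five concentrations for 48 hours. Endpoints are linearly interpolated between the surrounding concentrations. The concentration for full growth arrest is given as TGI.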

For orientation: TGI means the concentration giving total growth inhibition.

On to `CS/C(=N\S(=O)(=O)c1cc(C)c(Cl)cc1Cl)NNc1cnc2ccccc2n1`, for which the total growth inhibition concentration (TGI) in the assay with A549 NSCLC, in the assay with SK-OV-3 ovarian, in the assay with COLO 205 colon, with SF-268 CNS, with OVCAR-8 ovarian and in the assay with K-562 leukemia was above 100 µM in each case. Besides, the total growth inhibition concentration (TGI) with OVCAR-4 ovarian, in the assay with SK-MEL-5 melanoma, in the assay on CAKI-1 renal, in the assay on SF-295 CNS, with HL-60(TB) leukemia and with UACC-257 melanoma was above 100 µM in each case. In addition, the TGI in the assay with EKVX NSCLC, in the assay on PC-3 prostate, in the assay on HCC-2998 colon, in the assay on A498 renal, in the assay on SNB-75 CNS and with NCI/ADR-RES ovarian was above 100 µM in each case. Besides, the TGI in the assay with SF-539 CNS and with NCI-H460 lung was above 100 µM throughout.

On to `CC1=NN(C(=O)CC(=O)Nc2cccc(C)c2)C(=O)C1N=Nc1ccc(S(=O)(=O)c2ccc(N=NC3C(=O)N(C(=O)CC(=O)Nc4cccc(C)c4)N=C3C)cc2)cc1` (stereo not given), for which the TGI in the assay on A549 NSCLC, in the assay with SK-OV-3 ovarian, in the assay on COLO 205 colon, in the assay on SF-268 CNS, in the assay on OVCAR-8 ovarian and with K-562 leukemia was above 100 µM in each case. In addition, the TGI in the assay on OVCAR-4 ovarian, with SK-MEL-5 melanoma, with CAKI-1 renal, in the assay on SF-295 CNS, in the assay with HL-60(TB) leukemia and in the assay on UACC-257 melanoma was above 100 µM each time. Moreover, the TGI in the assay with EKVX NSCLC, with PC-3 prostate, with HCC-2998 colon, with A498 renal, in the assay with SNB-75 CNS and in the assay on NCI/ADR-RES ovarian was above 100 µM each time. Further, the TGI in the assay on SF-539 CNS and with NCI-H460 lung was above 100 µM each time.

For the compound `C=C(C)[C@@H]1CCC2=C[C@H](OC2=O)[C@@]2(C)C[C@@H]2C(=O)/C=C(/C)C(=O)[C@H]1OC(C)=O`, the TGI in the assay with A549 NSCLC is above 71.9 µM; with SK-OV-3 ovarian it was above 84.7 µM; in the assay on COLO 205 colon, 45.3 µM; in the assay with SF-268 CNS, above 72.6 µM; with OVCAR-8 ovarian, above 68.6 µM; with K-562 leukemia, above 32.2 µM. The TGI is above 63.6 µM in the assay with OVCAR-4 ovarian; 29.7 µM in the assay with SK-MEL-5 melanoma; 42 µM in the assay with CAKI-1 renal; above 100 µM in the assay on SF-295 CNS; above 100 µM in the assay on HL-60(TB) leukemia; 81.4 µM in the assay with UACC-257 melanoma. Besides, the TGI is above 49.8 µM with EKVX NSCLC; above 46.1 µM in the assay with PC-3 prostate; 43 µM in the assay on HCC-2998 colon; 57.8 µM in the assay on A498 renal; above 83.5 µM with SNB-75 CNS; above 100 µM in the assay on NCI/ADR-RES ovarian. Also, the values for the TGI in the assay with SF-539 CNS and with NCI-H460 lung were above 33.7 µM and above 82.3 µM, respectively.

For the compound `Cn1c(=O)cc(N=Nc2ccc(Cl)c(Cl)c2)[nH]c1=O`, the TGI was above 100 µM in the assay with A549 NSCLC; above 100 µM in the assay with SK-OV-3 ovarian; 60.5 µM in the assay on COLO 205 colon; 51.1 µM with SF-268 CNS; 53 µM in the assay on OVCAR-8 ovarian; 55.9 µM with K-562 leukemia. The TGI was 61.7 µM in the assay on OVCAR-4 ovarian; above 100 µM in the assay with SK-MEL-5 melanoma; 28.5 µM in the assay with CAKI-1 renal; above 100 µM in the assay with SF-295 CNS; 50.7 µM in the assay on HL-60(TB) leukemia; 65.9 µM in the assay on UACC-257 melanoma. In addition, the total growth inhibition concentration (TGI) with EKVX NSCLC is 51.4 µM; with PC-3 prostate, 56.1 µM; in the assay on HCC-2998 colon it was above 100 µM; with A498 renal it was above 100 µM; in the assay with SNB-75 CNS, above 100 µM; with NCI/ADR-RES ovarian, 77.4 µM. Besides, the TGI in the assay with SF-539 CNS and in the assay with NCI-H460 lung was above 100 µM in each case.

Regarding `CC(=O)OC[C@@]1(C)[C@@H]2[C@@H]3[C@@]4(CO[C@]3(C)C(=O)[C@@]3(O)C[C@H](C)[C@H](OC(C)=O)[C@@H]3[C@H]4OC(C)=O)[C@H](OC(=O)c3ccccc3)C[C@@H]21`, the TGI in the assay on A549 NSCLC, in the assay on SK-OV-3 ovarian, in the assay on COLO 205 colon, in the assay with SF-268 CNS, in the assay with OVCAR-8 ovarian and with K-562 leukemia was above 100 µM each time. For the same compound, the TGI with OVCAR-4 ovarian, in the assay on SK-MEL-5 melanoma, with CAKI-1 renal, in the assay on SF-295 CNS, with HL-60(TB) leukemia and with UACC-257 melanoma was above 100 µM throughout. For the same compound, the TGI with EKVX NSCLC, in the assay on PC-3 prostate, in the assay on HCC-2998 colon, in the assay with A498 renal, in the assay with SNB-75 CNS and in the assay on NCI/ADR-RES ovarian was above 100 µM throughout. The TGI with SF-539 CNS and in the assay with NCI-H460 lung was above 100 µM each time.
